The test system of experiment [1] is K. pneumoniae. As to the kind of experiment: MIC of biocide actives and formulations, microtiter growth assay.
For experiment [2], the system named is P. aeruginosa. The description is as above.
Experiment [3] has as its system all organisms tested except P. aeruginosa. As to the kind of experiment: Triclosan plus sub-biocidal peptide, summary over organisms. It is filed as cell-based. An excerpt:
Thus, the potential use rate of triclosan as an antimicrobial is reduced.

The subject of experiment [4] is S. cerevisiae ATCC 9763. As to the kind of experiment: microbe, parasite or virus in culture. The conditions noted are these: Saccharomyces cerevisiae, ATCC9763, read-out: Triclosan MIC.
Experiment [5] has as its system E. coli ATCC 25922.
The test system of experiment [6] is S. cerevisiae ATCC 9763.
Experiment [7] relates to P. aeruginosa ATCC 10145.
The test system of experiment [8] is S. aureus ATCC 33591 (MRSA).
Experiment [9] deals with E. coli ATCC 25922. The experiment in a line: microbe, parasite or virus in culture. Particulars: Escherichia coli, ATCC25922, read-out: Triclosan MIC.
Experiment [10] relates to C. albicans ATCC 10231.
Experiment [11] concerns microorganisms. As to the kind of experiment: Triclosan plus sub-toxic levels of peptide on microbial growth. The class given is cell-based. On the procedure: Effect of combinations of triclosan and sub-toxic levels of peptide on microbial growth is assessed. […] Thus, the potential use rate of triclosan as an antimicrobial is shown to be reduced.
Experiment [12] deals with K. pneumoniae ATCC 27736.
The test system of experiment [13] is K. pneumoniae ATCC 27736. The experiment in a line: microbe, parasite or virus in culture. The conditions noted are these: Klebsiella pneumoniae, ATCC27736, read-out: Triclosan MIC.
The test system of experiment [14] is P. aeruginosa ATCC 10145. The experiment in a line: microbe, parasite or virus in culture. The conditions noted are these: Pseudomonas aeruginosa, ATCC10145, read-out: Triclosan MIC.
In experiment [15] the test system is S. aureus ATCC 33591 (MRSA). The experiment in a line: microbe, parasite or virus in culture. Particulars: Staphylococcus aureus, read-out: Triclosan MIC.
The subject of experiment [16] is C. albicans ATCC 10231. The experiment in a line: microbe, parasite or virus in culture. The conditions noted are these: Candida albicans, ATCC10231, read-out: Triclosan MIC.
In experiment [17] the test system is E. coli. As to the kind of experiment: Peptide-containing textile fiber, MIC. It is filed as cell-based, Escherichia coli. The conditions noted are these: E. coli in LB media. An excerpt: Peptide compositions comprising peptides of the present invention and at least one biocide or germicide may be applied by coating or spinning effective amounts of peptide onto or into the desired polymer. The peptides may be prepared in an aqueous solution to use as a coating solution or combined with a polymer. […] A peptide and polymer solution or mixture may be made and undergo casting or formation to the desired shaped article, fiber or film. The shaped article, fiber or film may then be quenched in water or methanol, allowed to air dry or dry under an appropriate atmosphere to prevent oxidative reactions.
The resulting solution may be placed into a microscale spinning apparatus and fiber is formed while wet with methanol. The antimicrobial activity of the peptides may be tested in tubes containing LB media innoculated with the peptide-containing fiber and E. coli growing at log phase (1×10^6 to 1×10^7 cells/ml). Aliquots can be taken from the culture tube at periodic intervals and absorbance readings at 600 nm (uv/vis) can be measured in a microcuvette.

Experiment [18] deals with microbes such as Salmonella typhimurium and Clostridium botulinum. It is filed as cell-based. Particulars: food preservative use.
Setting [19] is: K. pneumoniae, growth inhibited by >90%.
Where [20] appears, read: P. aeruginosa, growth inhibited by >90%.
[21] abbreviates: triclosan MIC with octanoyl-R-NH-octyl at 4 ppm.
Where [22] appears, read: triclosan MIC with octanoyl-RR-NH-octyl at 0.5 ppm.

The record followed here is patent publication US20030194445A1, “Compositions and methods of use of peptides in combination with biocides and/or germicides” (priority 2001, published 2003).

Converted amounts (≈) assume the structure as drawn. Counter-ions that a name gives are not always drawn. Like-named read-outs stand apart in the source and are kept apart here. *: point of attachment. Octanoyl = CCCCCCCC(=O)*

Take `O=CCCCC=O` [Aqucar, glutaraldehyde]: the MIC in [1] (Klebsiella pneumoniae) stood at 250 µg/mL; in experiment [2] (Pseudomonas aeruginosa), 500 µg/mL.

As to `CCCCCCCCCCCCNC(=N)N` [DGH, dodecylguanidine hydrochloride], the values for the MIC in [1] (Klebsiella pneumoniae) and in [2] (Pseudomonas aeruginosa) were 2.5 µg/mL and 10 µg/mL, respectively.

On to `N#CSCSC#N` [MBT, methylene bis(thiocyanate)], for which the MIC in [1] (setting [19]) and in experiment [2] (setting [20]) was 0.6 µg/mL each time.

As for `O=[N+]([O-])C(Br)(CO)CO` [Myacide, 2-bromo-2-nitropropane-1,3-diol], the MIC in experiment [1] (Klebsiella pneumoniae) was 10 µg/mL; in experiment [2] (Pseudomonas aeruginosa) it was 1.3 µg/mL.

Take `Oc1cc(Cl)ccc1Oc1ccc(Cl)cc1Cl` [Triclosan, 2,4,4′-trichloro-2′-hydroxydiphenylether]: in experiment [3], the “inhibitory effect of triclosan on addition of sub-biocidal amounts of peptide” value was “substantially increased”. Besides, the MIC is 4 µg/mL (≈ 13.8 µM) in experiment [4]; 0.002 µg/mL (≈ 0.00691 µM) in experiment [9]; 0.061 µg/mL (≈ 0.211 µM) in experiment [13]; greater than 250 µg/mL in [14]; 0.015 µg/mL (≈ 0.0518 µM) in experiment [15]; 8 µg/mL (≈ 27.6 µM) in experiment [16]. For the same compound, the “Triclosan plus constant [peptide]” value in experiment [5] (setting [21]) is given as <0.00003 (4 ppm) μg/ml; in experiment [6] (triclosan MIC with octanoyl-R-NH-octyl at 2 ppm) it was 2 (2 ppm) μg/ml; in experiment [7] (setting [21]) it was >250 (4 ppm) μg/ml; in experiment [8] (setting [22]), 0.002 (0.5 ppm) μg/ml; in [10] (triclosan MIC with octanoyl-RR-NH-octyl at 2 ppm), 4 (2 ppm) μg/ml; in experiment [10] (triclosan MIC with octanoyl-RR-NH-octyl at 4 ppm), 2 (4 ppm) μg/ml. Moreover, the “Triclosan plus constant [peptide]” value in experiment [12] (setting [22]) is reported as 0.031 (0.5 ppm) μg/ml; in experiment [12] (triclosan MIC with octanoyl-RR-NH-octyl at 1 ppm), 0.00003 (1 ppm) μg/ml. For the same compound, the “inhibitory effect of triclosan with a peptide of the invention in sub-toxic amounts” value in experiment [11] was “substantially increase”.

With `N#CC(Br)(Br)C(N)=O` [compound 7287, 2,2-dibromo-3-nitrilo propionamide], the MIC in experiment [1] (setting [19]) and in experiment [2] (setting [20]) was 40.0 µg/mL in each case.

For `CCCCCCCCNC(=O)[C@H](CCCNC(=N)N)NC(=O)CCCCCCC` [octanoyl-R-NH-octyl, octanoyl-R—NH-octyl], the “Peptide MIC” value in [5] (ATCC 25922, 19 h) was 8 µg/mL; in [6] (ATCC 9763, 19 h), 8 µg/mL; in experiment [7] (ATCC 10145, 19 h), 8 µg/mL.

With `CCCCCCCCNC(=O)[C@H](CCCNC(=N)N)NC(=O)[C@H](CCCNC(=N)N)NC(=O)CCCCCCC` [octanoyl-RR-NH-octyl, octanoyl-RR—NH-octyl], the “Peptide MIC” value in experiment [8] (ATCC 33591, 19 h) turned out to be 2 µg/mL; in experiment [10] (ATCC 10231, 19 h) it was 8 µg/mL; in [12] (ATCC 27736, 19 h), 4 µg/mL.

Turning to “Acetyl-Arg-Trp-Arg-Trp-NH2 (Ac-RWRW-NH2)”, the MIC entry in experiment [17] and in experiment [18] was “≦31 μg/ml” throughout.

Consider Decanoyl-Arg-NH-decyl, for which the MIC result in experiment [17] is “≦15 μg/ml”; in experiment [18], “≦8 μg/ml”.

Consider Nonanoyl-Arg-Arg-NH-nonyl, for which the MIC entry in experiment [17] is on record as “≦2 μg/ml”.

Take Nonanoyl-Arg-NH-nonyl: in experiment [18], the MIC result is “≦4 μg/ml”.

For the compound Octanoyl-Arg-Ala-NH-octyl, the MIC entry in experiment [18] is reported as “≦15 μg/ml”.

As to Octanoyl-Arg-Arg-Arg-NH-octyl, in experiment [17], the MIC result was “≦8 μg/ml”.

For Octanoyl-Arg-Cys-NH-octyl, the MIC entry in experiment [18] is “≦15 μg/ml”.

With “Octanoyl-Arg-Phe-Phe-Arg-NH-octyl (Octanoyl-RFFR-{NH‑octyl})”, the MIC entry in [17] is given as “≦4 μg/ml”.

Take Octanoyl-Arg-Trp-NH2: the MIC entry in experiment [17] and in experiment [18] was “≦15 μg/ml” throughout.

For Octanoyl-Arg-Trp-Phe-NH2, in experiment [17], the MIC result is listed as “≦15 μg/ml”.

As for Octanoyl-Lys-Arg-NH-octyl, the MIC entry in [18] is “≦4 μg/ml”.

“n-alkyl (C12-40%, C14-50%, C16-10%) dimethylbenzylammonium chloride [Maquat]”: the results for the MIC in experiment [1] (setting [19]) and in experiment [2] (setting [20]) were 0.6 µg/mL and 7.8 µg/mL, respectively.
